How the values were obtained:
human TRα-1 = target: T1, human TRα-1 (Homo sapiens, UniProt P10827); format: cell-based
T1 sequence (P10827 149-407 isoform P10827-2): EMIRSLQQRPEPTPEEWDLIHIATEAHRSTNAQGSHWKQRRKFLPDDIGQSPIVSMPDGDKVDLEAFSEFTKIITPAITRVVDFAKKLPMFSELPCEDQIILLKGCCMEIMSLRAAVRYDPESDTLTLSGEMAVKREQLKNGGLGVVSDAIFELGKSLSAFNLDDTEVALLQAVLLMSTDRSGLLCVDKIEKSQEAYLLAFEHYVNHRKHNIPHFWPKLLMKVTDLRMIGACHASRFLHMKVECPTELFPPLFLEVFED

human TRα-1 and TRβ-1 = experiment: TR biosensors; format: cell-based; details: both biosensor strains
TRα = details: transcriptional activation assay; cited from earlier work
TRα and TRβ = details: cited from earlier work
TRβ = details: cited from earlier work
human ER β = human ER β biosensor, relative to 100% for 17-β-estradiol; cited from earlier work
porcine ER β = porcine ER β biosensor; cited from earlier work

SMILES | TR biosensors, qualitative activity (human TRα-1 and TRβ-1) | Other methods, reported activity (TRα and TRβ) | also measured
Cc1cc(OCC(=O)O)cc(C)c1Cc1ccc(O)c(C(C)C)c1 [GC-1, 3,5-dimethyl-4-(4′-hydroxy-3′-isopropylbenzyl)-phenoxy acetic acid] | Agonist, TRβ selective | Agonist, TRβ selective | EC50T3/EC50Ligand·100% (human TRα-1): 89.66%; Detection limit (lowest concentration giving unambiguous growth signal) (human TRα-1; TRα biosensor, visual inspection of dose-response curves): […]; Z′ (human TRα-1; pMIT::TRα-1, Z′ factor, highest vs lowest ligand concentration): 0.79; EC50 (TRα): […]
O=C(O)Cc1cc(I)c(Oc2ccc(O)c(I)c2)c(I)c1 [Triac, 3,3′,5-triiodothyroacetic acid] | Agonist, TRβ selective | Agonist, TRβ selective | Affinity higher than T3 (TRβ): approximately 3 fold; Potency higher than T3 (TRα and TRβ; binding to TRβ): 6 fold
N[C@@H](Cc1cc(I)c(Oc2ccc(O)c(I)c2)c(I)c1)C(=O)[O-].O.[Na+] [T3, 3,3′,5-triiodo-L-thyronine sodium salt hydrate] | Agonist | Agonist | –
CC(C)c1cc(Oc2c(Cl)cc(CC(=O)O)cc2Cl)ccc1O [KB-141, 3,5-dichloro-4-(4-hydroxy-3-isopropylphenoxy) phenylacetic acid] | Agonist, TRβ selective | Agonist, TRβ selective | –
CC(C)(c1ccc(O)cc1)c1ccc(O)cc1 [bisphenol A] | – | – | Relative binding affinity (RBA=EC50Estradiol/EC50Ligand×100 %) (human ER β): 1.15%; Relative binding affinity (RBA=EC50Estradiol/EC50Ligand×100 %) (porcine ER β): 0.13%
